Data as given in ChEMBL document CHEMBL5537197, “Discovery of Novel Coumarin-quinolinium Derivatives as Pan-KRAS Translation Inhibitors by Targeting 5'-UTR RNA G-Quadruplexes” (J Med Chem, 2024).
Calls of active or inactive are those of the source. The calls are words filed in the database; no cut-off is given here.

Legend:
MIA PaCa-2 [1] = test: Antitumor activity against human MIA PaCa-2 cells xenografted in BALB/C-nu/nu mouse model assessed as tumor growth inhibition at 2.5 mg/kg,ip everyday for 18 days relative to control; type: functional; conditions: MIA PaCa-2, 432 h, time 18 day, read-out: TGI
[2] = molecular target: GTPase KRas (Homo sapiens) (UniProt P01116); test: Inhibition of KRAS in human MIA PaCa-2 cells assessed as decrease in total protein level at 1.25 to 5 uM incubated for 24 hrs by Western blot analysis; type: cell-based; conditions: dose 1.25-5 µM
[3] = molecular target: GTPase KRas (Homo sapiens) (UniProt P01116); test: Inhibition of KRAS in human MIA PaCa-2 cells assessed as decrease in AKT phosphorylation at 2.5 uM by Western blot analysis; type: cell-based; conditions: time <= 24.0 hrs, TDE = time-dependent effect
MIA PaCa-2 [4] = test: Induction of cell cycle arrest at G2/M phase in human MIA PaCa-2 cells incubated for 24 hrs by PI staining based HCS analysis; type: functional; conditions: dose 1.25-5 µM
[5] = molecular target: GTPase KRas (Homo sapiens) (UniProt P01116); test: Inhibition of KRAS in human MIA PaCa-2 cells assessed as decrease in mTOR phosphorylation incubated for 24 hrs by Western blot analysis; type: cell-based; conditions: dose 1.25-5 µM
[6] = Cytotoxicity against human PANC-1 cells […] assessed as cell growth inhibition incubated for 24 hrs by MTT assay; type: functional, cell-based; conditions: PANC-1, 24 h
[7] = Cytotoxicity against human HFL1 cells harboring wild-type KRAS assessed as cell growth inhibition incubated for 24 hrs by MTT assay; type: toxicity, cell-based
PANC-1 [8] = test: Effect on NRAS level in human PANC-1 cells harboring KRAS G12D mutant at 1.25 to 5 uM by Western blot analysis; type: functional, cell-based; conditions: dose 1.25-5 µM
Quadruplex DNA [9] = test: Binding affinity to HP12 G-Quadruplex (unknown origin) assessed as dissociation constant by fluorescence spectroscopy; type: nucleic-acid assay
HPAF-II = test: Cytotoxicity against human HPAF-II cells harboring KRAS G12D mutant assessed as cell growth inhibition incubated for 24 hrs by MTT assay; type: functional, cell-based
Quadruplex DNA [10] = test: Binding affinity to KRAS utr-z G-Quadruplex (unknown origin) assessed as dissociation constant by fluorescence spectroscopy; type: nucleic-acid assay
[11] = molecular target: GTPase KRas (Homo sapiens) (UniProt P01116); test: Inhibition of KRAS in human MIA PaCa-2 cells at 2.5 uM incubated for 24 hrs by Western blot analysis; type: cell-based
[12] = system: GTPase KRas (Homo sapiens), P01116 [G12C]; test: Inhibition of KRAS G12C mutant in human MIA PaCa-2 cells incubated for 24 hrs by Western blot analysis; type: cell-based; conditions: dose <= 5.0 µM
Quadruplex DNA [13] = test: Binding affinity to KRAS utr-1 G-Quadruplex (unknown origin) assessed as dissociation constant by fluorescence spectroscopy; type: nucleic-acid assay
[14] = molecular target: GTPase KRas (Homo sapiens) (UniProt P01116); test: Inhibition of KRAS in human MIA PaCa-2 cells assessed as decrease in ERK phosphorylation at 2.5 uM by Western blot analysis; type: cell-based; conditions: time <= 24.0 hrs, TDE = time-dependent effect
MIA PaCa-2 [15] = test: Antitumor activity against human MIA PaCa-2 cells xenografted in BALB/C-nu/nu mouse model assessed as reduction in tumor weight at 2.5 to 5 mg/kg,ip everyday for 18 days; type: functional, organism-based; conditions: dose 2.5-5 mg/kg, time 18.0 day
[16] = system: GTPase KRas (Homo sapiens), P01116 [G12C]; test: Inhibition of KRAS G12C mutant in human NCI-H358 cells incubated for 24 hrs by Western blot analysis; type: cell-based; conditions: dose <= 5.0 µM
[17] = molecular target: GTPase KRas (Homo sapiens) (UniProt P01116); test: Inhibition of KRAS in human MIA PaCa-2 cells assessed as decrease in MEK phosphorylation incubated for 24 hrs by Western blot analysis; type: cell-based; conditions: dose 1.25-5 µM
[18] = molecular target: GTPase KRas (Homo sapiens) (UniProt P01116); test: Inhibition of KRAS in human MIA PaCa-2 cells assessed as decrease in mTOR phosphorylation at 2.5 uM by Western blot analysis; type: cell-based; conditions: time <= 24.0 hrs, TDE = time-dependent effect
[19] = system: GTPase KRas (Homo sapiens), P01116 [G12D]; test: Inhibition of KRAS G12D mutant in human PANC-1 cells incubated for 24 hrs by Western blot analysis; type: cell-based; conditions: dose <= 5.0 µM
[20] = Toxicity in BALB/C-nu/nu mouse model xenografted with human MIA PaCa-2 cells assessed as drug tolerance at 2.5 to 5 mg/kg,ip everyday for 18 days; type: organism-based; conditions: in vivo, 432 h, dose 2.5-5 mg/kg, time 18 day
Quadruplex DNA [21] = test: Binding affinity to SS12 G-Quadruplex (unknown origin) assessed as dissociation constant by fluorescence spectroscopy; type: nucleic-acid assay
[22] = molecular target: GTPase KRas (Homo sapiens) (UniProt P01116); test: Inhibition of KRAS in human PANC-1 cells at 2.5 uM incubated for 24 hrs by Western blot analysis; type: cell-based
Quadruplex RNA = test: Binding affinity to NRAS RNA G-Quadruplex (unknown origin) assessed as melting temperature at 25 uM at 25 to 95 degreeC by CD spectroscopy (reference value: 82.2 degreeC); type: nucleic-acid assay
SW-620 = test: Cytotoxicity against human SW620 cells harboring KRAS G12V mutant assessed as cell growth inhibition incubated for 24 hrs by MTT assay; type: functional, cell-based; conditions: SW-620, 24 h
PANC-1 [23] = test: Cytotoxicity against human PANC-1 cells overexpressing KRAS G12D mutant assessed as cell death incubated for 24 hrs by MTT assay; type: functional, cell-based

Chain of GTPase KRas (Homo sapiens) (P01116 whole entry, looked up): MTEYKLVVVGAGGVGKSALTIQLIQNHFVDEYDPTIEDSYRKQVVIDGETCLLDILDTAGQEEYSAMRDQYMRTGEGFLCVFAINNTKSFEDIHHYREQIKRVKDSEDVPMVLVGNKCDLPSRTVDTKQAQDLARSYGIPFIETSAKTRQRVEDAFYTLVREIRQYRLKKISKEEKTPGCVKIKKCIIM
Chain of GTPase KRas (Homo sapiens), P01116 [G12C] (P01116 whole entry G12C): as the sequence (P01116 whole entry, looked up) above, with G12C counted along it
Chain of GTPase KRas (Homo sapiens), P01116 [G12D] (P01116 whole entry G12D, looked up): as the sequence (P01116 whole entry, looked up) above, with G12D counted along it

inhibition [2]: Active
inhibition [3]: Tde
inhibition [5]: Dose-Dependent Effect
Kd (Quadruplex DNA [9]): > 5 µM
Kd (Quadruplex DNA [10]): 2.3 µM
inhibition [11]: Active
inhibition [12]: Dose-Dependent Effect
Kd (Quadruplex DNA [13]): 0.9 µM
inhibition [14]: Tde
inhibition [16]: Dose-Dependent Effect
inhibition [17]: Dose-Dependent Effect
inhibition [18]: Tde
inhibition [19]: Dose-Dependent Effect
Kd (Quadruplex DNA [21]): > 5 µM
inhibition [22]: Active
Tm (Quadruplex RNA): 78.7 °C
SMILES: CCN(CC)c1ccc2cc(/C=C/c3ccc4cc(F)c(NCCN5CCCC5)cc4[n+]3C)c(=O)oc2c1.[I-]
inhibition in vivo at 2.5 mg/kg (MIA PaCa-2 [1]): 62%
Activity (MIA PaCa-2 [4]): Dose-Dependent Effect
IC50 [6]: > 40 µM
IC50 at 24 h [7]: > 40 µM
Activity (PANC-1 [8]): inactive
IC50 (HPAF-II): 5.4 µM
Activity (MIA PaCa-2 [15]): Active
Activity [20]: Non-Toxic
IC50 (SW-620): 5.1 µM
Activity (PANC-1 [23]): inactive
